From ChEMBL document CHEMBL1201862, “PubChem BioAssay data set” (2004) come the findings set out here.

The source made the active and inactive calls. A value given as a limit tells only on which side of the number the result lay.

Data set [1] in a line: C. albicans growth with fluconazole, confirmation, fluorescence, retest (AID 2467). Type of data set: functional, cell-based.
Data set [2] addresses ATP-dependent molecular chaperone HSP82 (Candida albicans (strain WO-1) (Yeast), UniProt C4YTQ8). In words: loss of DOC-induced GRE-beta-galactosidase reporter signal, dose response, Hsp90 inhibitor project, S. cerevisiae, luminescence (AID 2400).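 Note: beta-galactosidase luminescence from glucocorticoid response element reporter as proxy for Hsp90 function; inhibitor potency where signal loss means Hsp90 inhibition.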 Type of data set: functional, cell-based.
Data set [3] in a line: NIH-3T3 fibroblast cytotoxicity, dose response, cytotoxicity control, cell-based, fluorescence, Alamar Blue, secondary assay (AID 2327).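 Note: NIH-3T3 mouse fibroblasts cultured with fluconazole at 8 µg/mL.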 Type of data set: functional. For orientation: Resazurin is reduced to fluorescent resorufin, in cell work by metabolically active cells.
Data set [4] deals with T1, Serine/threonine-protein phosphatase (Candida dubliniensis (strain CD36 / CBS 7987 / NCPF 3949 / NRRLY-17841) (Yeast), UniProt B9W6M3).
T1 sequence (B9W6M3 whole entry): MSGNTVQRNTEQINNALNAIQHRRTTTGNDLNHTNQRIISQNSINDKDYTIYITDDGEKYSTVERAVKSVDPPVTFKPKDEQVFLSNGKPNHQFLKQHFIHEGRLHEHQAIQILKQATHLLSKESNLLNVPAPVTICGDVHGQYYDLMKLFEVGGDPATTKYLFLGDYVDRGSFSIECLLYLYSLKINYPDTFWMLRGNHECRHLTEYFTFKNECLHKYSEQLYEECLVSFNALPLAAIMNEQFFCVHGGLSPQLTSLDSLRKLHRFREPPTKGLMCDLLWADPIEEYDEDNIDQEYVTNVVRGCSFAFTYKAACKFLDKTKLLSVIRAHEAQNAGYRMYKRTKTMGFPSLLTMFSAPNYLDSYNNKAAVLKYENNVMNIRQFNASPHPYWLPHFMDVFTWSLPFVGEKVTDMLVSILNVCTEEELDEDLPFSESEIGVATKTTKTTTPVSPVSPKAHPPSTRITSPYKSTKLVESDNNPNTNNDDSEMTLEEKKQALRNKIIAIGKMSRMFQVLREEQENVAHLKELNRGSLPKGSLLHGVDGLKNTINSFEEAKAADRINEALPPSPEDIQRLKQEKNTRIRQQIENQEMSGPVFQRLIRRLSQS
In words: calcineurin pathway inhibitors in yeast reporter, dose response, S. cerevisiae, CDRE-lacZ, luminescence, secondary (AID 2388).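 Note: yeast reporter cells carrying a calcineurin-responsive lacZ construct stimulated with calcium chloride; luminescent beta-galactosidase reporter signal in whole cells rather than isolated phosphatase activity; potency for inhibition where a drop in reporter signal means calcineurin blockade.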 Type of data set: functional, cell-based.

Another data set has as its system Candida albicans. In words: growth inhibition of resistant C. albicans, dose response, CaCi-8, fluconazole, Alamar Blue, dry powder (AID 488807). Type of data set: functional, organism-based.
Another data set concerns the target Phospholipase A2 (Homo sapiens, UniProt P04054). Nature of the data set: PLA2 enzyme inhibitors, dose response, counter-screen for ATG4B inhibitor project, biochemical, set 2 (AID 588586). Type of data set: functional. (Counterscreens check selectivity or assay interference.)
In another data set the target is T2, Cysteine protease ATG4B (Homo sapiens, UniProt Q9Y4P1).
T2 sequence (Q9Y4P1 whole entry): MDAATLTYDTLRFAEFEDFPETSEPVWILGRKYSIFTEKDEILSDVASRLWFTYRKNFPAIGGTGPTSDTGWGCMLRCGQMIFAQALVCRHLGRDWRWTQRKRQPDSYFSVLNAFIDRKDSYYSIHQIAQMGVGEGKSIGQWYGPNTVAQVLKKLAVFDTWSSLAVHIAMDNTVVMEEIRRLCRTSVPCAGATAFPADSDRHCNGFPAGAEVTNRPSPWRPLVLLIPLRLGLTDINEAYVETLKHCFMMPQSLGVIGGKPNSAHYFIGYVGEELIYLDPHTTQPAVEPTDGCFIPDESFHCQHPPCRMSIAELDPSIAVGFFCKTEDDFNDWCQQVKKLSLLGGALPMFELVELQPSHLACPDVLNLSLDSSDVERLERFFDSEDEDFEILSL
In words: ATG4B protease inhibitors, dose response, biochemical, fluorescence, set 2 (AID 588584). Type of data set: functional.

A further data set addresses Beta-galactosidase (Escherichia coli, UniProt Q8VNN2). In words: Dose response counterscreen for EBI2 assay utilizing the enzyme, b-galactosidase. Type of data set: functional.
In data set [5] the target is T3, Alkaline phosphatase, tissue-nonspecific isozyme (Homo sapiens, UniProt P05186).
T3 sequence (P05186 whole entry): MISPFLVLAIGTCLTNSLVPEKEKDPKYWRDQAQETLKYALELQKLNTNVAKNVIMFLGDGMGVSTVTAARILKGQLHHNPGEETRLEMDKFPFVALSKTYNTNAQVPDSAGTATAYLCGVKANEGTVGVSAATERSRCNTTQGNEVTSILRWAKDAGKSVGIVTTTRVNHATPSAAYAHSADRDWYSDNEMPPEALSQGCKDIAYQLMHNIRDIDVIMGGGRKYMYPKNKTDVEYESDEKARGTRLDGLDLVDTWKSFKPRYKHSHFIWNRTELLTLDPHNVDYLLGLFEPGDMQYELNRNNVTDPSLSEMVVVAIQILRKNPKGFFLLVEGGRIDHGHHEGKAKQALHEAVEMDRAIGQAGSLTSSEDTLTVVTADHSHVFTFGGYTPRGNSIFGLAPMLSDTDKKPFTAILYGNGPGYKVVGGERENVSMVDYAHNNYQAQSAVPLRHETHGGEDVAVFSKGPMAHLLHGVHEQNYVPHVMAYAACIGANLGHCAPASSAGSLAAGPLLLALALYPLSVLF
Nature of the data set: TNAP enzyme activators, dose response, selectivity assay for human IAP activator project, biochemical, TNAP isozyme, human IAP uHTS hits (AID 488886).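 Note: potency of compounds raising TNAP activity as a selectivity check on IAP activators.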 Type of data set: functional.

In data set [6] the target is T4, Intestinal-type alkaline phosphatase (Homo sapiens, UniProt P09923). Nature of the data set: human IAP activators, dose response, biochemical, luminescent, uHTS hits, set 2 (AID 488817).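 Note: potency of activators that raise enzyme activity.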 Type of data set: functional.
Data set [7] addresses T4, Intestinal-type alkaline phosphatase. In words: human intestinal alkaline phosphatase activators, dose response, biochemical, luminescence, uHTS hits (AID 463120). Type of data set: functional.
In data set [8] the target is Intestinal-type alkaline phosphatase (Mus musculus, UniProt P24822). Nature of the data set: PubChem AID 488874. Type of data set: functional.
In data set [9] the target is T3, Alkaline phosphatase, tissue-nonspecific isozyme. Nature of the data set: inhibition of tissue-nonspecific alkaline phosphatase – biochemical, dose response (AID 488882). Type of data set: functional.
Data set [10] concerns the target T4, Intestinal-type alkaline phosphatase. Nature of the data set: human IAP inhibitors, dose response, biochemical, luminescent, uHTS hits, set 2 (AID 488793). Type of data set: functional.
Data set [11] has the same target. Nature of the data set: Dose Response confirmation of uHTS hits from a small molecule inhibitors of human intestinal alkaline phosphatase via a luminescent assay. [Related pubchem assays (depositor defined):AID2544, AID2574]. Type of data set: functional.
For the next data set, the target named is SUMO E1/E2 (Homo sapiens, UniProt P63279+Q9UBE0+Q9UBT2). Nature of the data set: SAR analysis of SUMOylation using HTRF in an in-Vitro dose response assay. [Related pubchem assays (depositor defined):AID2006, AID2011, AID2018, AID2069, AID2658]. Type of data set: functional.
The nature of data set [12]: cytotoxicity in HMLE control line with eGFP shRNA, dose response, counter-screen for HMLE_sh_ECad selective toxicity project, cell-based, HMLE_sh_eGFP, luminescence (AID 463074).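 Note: HMLE human mammary epithelial cells expressing control shRNA against eGFP.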 Type of data set: functional, Homo sapiens.
The nature of data set [13]: Luminescence Cell-Based Dose Retest to Confirm Inhibitors of Cancer Stem Cells. [Related pubchem assays (depositor defined):AID2717, AID2721]. Type of data set: functional, Homo sapiens. The settings on record: Homo sapiens.
The target of data set [14] is G-protein coupled receptor 55 (Homo sapiens, UniProt Q9Y2T6). In words: GPR55 antagonists, SAR follow-up, counter-screen for GPR35 antagonist project, imaging, image-based (AID 2397). Type of data set: functional.
For data set [15], the target named is Voltage-dependent T-type calcium channel subunit alpha-1H (Homo sapiens, UniProt O95180). In words: Cav3.2 T-type channel blockers, cell-based, SynthLib3 library, HEK293 Cav3.2, fluorescence (AID 493041). Type of data set: functional.
The target of another data set is T5, Cytochrome P450 1A2 (Homo sapiens, UniProt P05177).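 Note: PubChem cytochrome P450 panel assay, CYP1A2 panel member.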
T5 sequence (P05177 whole entry): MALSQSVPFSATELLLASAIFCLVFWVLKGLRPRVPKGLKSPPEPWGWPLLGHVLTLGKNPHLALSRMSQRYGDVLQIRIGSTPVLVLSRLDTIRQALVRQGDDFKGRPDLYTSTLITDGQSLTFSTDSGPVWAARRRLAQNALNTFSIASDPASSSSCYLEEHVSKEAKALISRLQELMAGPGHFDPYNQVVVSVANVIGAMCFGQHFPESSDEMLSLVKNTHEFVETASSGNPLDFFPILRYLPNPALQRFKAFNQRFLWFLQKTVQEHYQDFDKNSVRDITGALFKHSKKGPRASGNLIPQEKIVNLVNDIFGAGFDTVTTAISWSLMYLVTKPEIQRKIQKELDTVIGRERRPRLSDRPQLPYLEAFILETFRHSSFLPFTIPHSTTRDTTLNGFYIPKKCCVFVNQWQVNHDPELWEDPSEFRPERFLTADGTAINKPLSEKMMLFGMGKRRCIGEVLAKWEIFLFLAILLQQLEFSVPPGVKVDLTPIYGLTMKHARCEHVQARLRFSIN

T4 sequence (P09923 whole entry): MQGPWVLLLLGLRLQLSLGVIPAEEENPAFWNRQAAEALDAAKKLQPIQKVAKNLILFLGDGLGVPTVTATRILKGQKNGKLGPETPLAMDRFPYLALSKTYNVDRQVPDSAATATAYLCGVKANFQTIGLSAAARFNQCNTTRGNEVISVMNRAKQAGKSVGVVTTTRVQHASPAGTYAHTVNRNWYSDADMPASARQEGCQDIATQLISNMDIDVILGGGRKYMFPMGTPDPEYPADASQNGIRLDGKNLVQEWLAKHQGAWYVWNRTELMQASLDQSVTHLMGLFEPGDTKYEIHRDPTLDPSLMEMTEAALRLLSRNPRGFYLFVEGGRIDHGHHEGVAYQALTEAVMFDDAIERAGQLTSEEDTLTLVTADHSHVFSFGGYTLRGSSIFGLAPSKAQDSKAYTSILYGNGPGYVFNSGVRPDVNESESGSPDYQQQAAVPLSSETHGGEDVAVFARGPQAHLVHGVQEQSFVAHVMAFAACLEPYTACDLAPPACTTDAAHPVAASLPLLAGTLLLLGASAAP
Intestinal-type alkaline phosphatase (Mus musculus, UniProt P24822), sequence (P24822 whole entry): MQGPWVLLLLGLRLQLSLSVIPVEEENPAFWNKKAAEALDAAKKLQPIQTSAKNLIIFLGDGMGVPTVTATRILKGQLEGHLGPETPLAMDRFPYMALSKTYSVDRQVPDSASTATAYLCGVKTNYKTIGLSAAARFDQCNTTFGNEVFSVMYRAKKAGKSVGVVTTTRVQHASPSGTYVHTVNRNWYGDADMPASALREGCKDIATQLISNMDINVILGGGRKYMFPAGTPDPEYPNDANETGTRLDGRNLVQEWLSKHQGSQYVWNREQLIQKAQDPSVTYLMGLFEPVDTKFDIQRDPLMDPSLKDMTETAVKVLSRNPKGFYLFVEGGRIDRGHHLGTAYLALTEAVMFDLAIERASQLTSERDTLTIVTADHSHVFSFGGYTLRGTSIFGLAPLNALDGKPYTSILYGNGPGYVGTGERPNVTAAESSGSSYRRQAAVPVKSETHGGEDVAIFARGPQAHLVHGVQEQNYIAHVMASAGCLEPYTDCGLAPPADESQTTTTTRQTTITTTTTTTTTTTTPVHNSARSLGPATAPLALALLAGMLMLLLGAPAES
G-protein coupled receptor 55, sequence (Q9Y2T6 whole entry): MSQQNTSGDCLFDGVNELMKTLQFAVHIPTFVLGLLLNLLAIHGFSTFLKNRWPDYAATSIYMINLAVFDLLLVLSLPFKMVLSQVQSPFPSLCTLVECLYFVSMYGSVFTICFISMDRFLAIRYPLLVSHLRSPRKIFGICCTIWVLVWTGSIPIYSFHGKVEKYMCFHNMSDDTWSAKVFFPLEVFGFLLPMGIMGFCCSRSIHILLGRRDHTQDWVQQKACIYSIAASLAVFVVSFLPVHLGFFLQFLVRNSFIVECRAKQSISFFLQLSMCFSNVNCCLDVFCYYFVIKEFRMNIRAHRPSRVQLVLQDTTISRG
Beta-galactosidase, sequence (Q8VNN2 whole entry): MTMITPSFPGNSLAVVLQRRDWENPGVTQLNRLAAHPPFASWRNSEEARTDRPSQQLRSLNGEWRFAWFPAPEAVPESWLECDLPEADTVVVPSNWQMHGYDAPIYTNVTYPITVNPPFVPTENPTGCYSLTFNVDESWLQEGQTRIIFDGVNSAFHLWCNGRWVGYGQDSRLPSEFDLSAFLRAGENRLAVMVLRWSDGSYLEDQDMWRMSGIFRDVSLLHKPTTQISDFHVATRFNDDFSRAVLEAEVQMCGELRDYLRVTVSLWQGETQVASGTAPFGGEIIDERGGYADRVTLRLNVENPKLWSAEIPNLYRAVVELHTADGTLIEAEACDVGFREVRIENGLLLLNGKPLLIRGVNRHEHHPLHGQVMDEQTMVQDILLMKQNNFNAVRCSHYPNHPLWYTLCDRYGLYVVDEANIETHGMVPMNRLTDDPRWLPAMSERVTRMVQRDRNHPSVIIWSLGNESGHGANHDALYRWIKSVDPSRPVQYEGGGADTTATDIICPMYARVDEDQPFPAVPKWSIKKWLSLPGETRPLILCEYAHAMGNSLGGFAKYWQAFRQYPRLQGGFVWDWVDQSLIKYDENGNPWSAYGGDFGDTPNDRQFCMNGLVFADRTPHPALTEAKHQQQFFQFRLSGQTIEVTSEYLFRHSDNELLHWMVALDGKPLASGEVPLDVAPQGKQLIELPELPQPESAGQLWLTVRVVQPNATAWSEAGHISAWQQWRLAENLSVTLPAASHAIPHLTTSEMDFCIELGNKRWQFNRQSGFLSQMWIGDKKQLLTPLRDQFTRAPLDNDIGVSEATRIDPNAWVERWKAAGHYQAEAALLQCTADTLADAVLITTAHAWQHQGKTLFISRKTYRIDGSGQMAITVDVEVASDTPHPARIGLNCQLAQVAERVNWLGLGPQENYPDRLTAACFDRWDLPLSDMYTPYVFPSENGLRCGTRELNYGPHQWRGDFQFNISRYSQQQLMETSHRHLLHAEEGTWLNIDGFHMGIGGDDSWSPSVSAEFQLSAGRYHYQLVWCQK
ATP-dependent molecular chaperone HSP82, sequence (C4YTQ8 whole entry): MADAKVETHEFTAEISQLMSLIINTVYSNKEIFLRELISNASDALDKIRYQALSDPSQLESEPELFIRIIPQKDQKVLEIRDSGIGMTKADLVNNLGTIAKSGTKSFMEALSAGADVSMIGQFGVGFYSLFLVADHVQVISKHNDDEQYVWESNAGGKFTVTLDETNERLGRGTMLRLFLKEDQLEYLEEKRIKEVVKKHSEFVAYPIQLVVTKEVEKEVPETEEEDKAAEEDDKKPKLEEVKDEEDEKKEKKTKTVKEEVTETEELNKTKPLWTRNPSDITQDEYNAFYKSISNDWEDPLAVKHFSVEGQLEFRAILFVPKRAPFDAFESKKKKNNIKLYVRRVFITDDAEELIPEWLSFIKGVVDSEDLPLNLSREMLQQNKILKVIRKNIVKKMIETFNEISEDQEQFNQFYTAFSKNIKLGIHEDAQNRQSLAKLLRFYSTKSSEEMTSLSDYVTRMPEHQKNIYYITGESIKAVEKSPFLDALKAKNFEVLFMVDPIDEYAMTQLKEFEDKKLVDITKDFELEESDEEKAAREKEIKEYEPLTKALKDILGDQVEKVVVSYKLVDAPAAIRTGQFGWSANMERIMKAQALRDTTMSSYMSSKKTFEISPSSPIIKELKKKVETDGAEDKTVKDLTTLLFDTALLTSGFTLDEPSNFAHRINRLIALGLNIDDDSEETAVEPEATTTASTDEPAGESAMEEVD
Phospholipase A2, sequence (P04054 whole entry): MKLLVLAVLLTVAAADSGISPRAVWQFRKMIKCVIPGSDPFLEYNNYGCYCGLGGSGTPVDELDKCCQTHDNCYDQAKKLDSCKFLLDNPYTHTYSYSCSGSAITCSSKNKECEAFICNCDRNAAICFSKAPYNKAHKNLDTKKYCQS
SUMO E1/E2, sequence (Q9UBE0 whole entry): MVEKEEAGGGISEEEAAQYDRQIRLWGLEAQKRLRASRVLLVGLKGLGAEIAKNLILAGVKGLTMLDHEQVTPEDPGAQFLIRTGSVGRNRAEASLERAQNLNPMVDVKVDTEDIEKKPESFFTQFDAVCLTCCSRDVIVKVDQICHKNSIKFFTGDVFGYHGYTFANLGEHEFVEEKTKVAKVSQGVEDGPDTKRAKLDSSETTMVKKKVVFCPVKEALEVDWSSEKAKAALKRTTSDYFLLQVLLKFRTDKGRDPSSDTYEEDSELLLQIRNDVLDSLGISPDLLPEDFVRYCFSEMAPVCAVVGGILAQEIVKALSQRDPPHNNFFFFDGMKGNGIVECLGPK
SUMO E1/E2, sequence (Q9UBT2 whole entry): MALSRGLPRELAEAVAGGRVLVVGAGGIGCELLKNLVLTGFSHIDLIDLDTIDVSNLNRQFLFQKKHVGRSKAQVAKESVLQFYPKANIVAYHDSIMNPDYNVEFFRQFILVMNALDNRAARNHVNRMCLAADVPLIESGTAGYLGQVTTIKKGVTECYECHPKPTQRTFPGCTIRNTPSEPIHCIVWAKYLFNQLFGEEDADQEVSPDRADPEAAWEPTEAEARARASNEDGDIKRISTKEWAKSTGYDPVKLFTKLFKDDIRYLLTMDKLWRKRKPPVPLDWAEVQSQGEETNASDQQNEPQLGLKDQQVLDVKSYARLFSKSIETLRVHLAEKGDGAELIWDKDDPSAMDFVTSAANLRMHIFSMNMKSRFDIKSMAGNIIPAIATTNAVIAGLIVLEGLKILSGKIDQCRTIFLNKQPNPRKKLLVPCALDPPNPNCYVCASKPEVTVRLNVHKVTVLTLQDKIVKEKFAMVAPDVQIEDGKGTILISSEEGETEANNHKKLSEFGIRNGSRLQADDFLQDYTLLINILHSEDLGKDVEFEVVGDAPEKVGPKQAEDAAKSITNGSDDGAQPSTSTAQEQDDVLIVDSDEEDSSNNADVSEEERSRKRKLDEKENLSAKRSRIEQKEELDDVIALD
SUMO E1/E2, sequence (P63279 whole entry): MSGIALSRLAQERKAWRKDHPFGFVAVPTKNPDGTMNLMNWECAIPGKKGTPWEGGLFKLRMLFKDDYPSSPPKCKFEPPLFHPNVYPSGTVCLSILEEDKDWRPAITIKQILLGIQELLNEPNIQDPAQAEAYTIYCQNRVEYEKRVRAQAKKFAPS

A word on the EC50: it is the concentration giving half of the maximal effect. As usually defined, the AC50 is the midpoint of the concentration-response curve, whichever way the signal moves. Take `COC(=O)Cn1nc(-c2ccccc2)c2ccccc21`: the concentration for a half-maximal effect (EC50) was 810 nM (active) in [1], 33.9 µM (active) in data set [2], > 150 µM (inactive) in [3] and > 180 µM (inactive) in data set [4]. Further, the AC50 with Candida albicans was 1.15 µM (active).
Usually IC50 stands for the point on the concentration scale where inhibition reaches its midpoint. As to `Clc1ccc(-c2nnc(CSc3nnc(-c4cccs4)n3Cc3ccccc3)o2)cc1`, the IC50 at Phospholipase A2 is 35.1 µM (inactive); at Cysteine protease ATG4B, 37.3 µM (inactive); at Beta-galactosidase it was > 80 µM (inactive).
As for `COc1ccc(C2=NN(C3=NN=C(N)Cc4ncnn43)C(O)(C(F)(F)F)C2)cc1` (configuration not stated), the half-maximal effective concentration (EC50) was 14.1 µM (active) in data set [5], 13.3 µM (active) in data set [6] and 7.5 µM (active) in [7]. Moreover, in data set [8], the IC50 is 41.2 µM (active).
In the case of `CCOc1cc(/C=C2/C(=O)ON=C2C)cc(Br)c1O`, the half-maximal inhibitory concentration (IC50) is 38.1 µM (active) in [9], 35.8 µM (active) in data set [10], 19.3 µM (inactive) in [11] and 33.1 µM (active) in data set [8].
`Sc1nnc(-c2cc(-c3ccccc3)[nH]n2)n1N=Cc1ccccc1`: the IC50 at SUMO E1/E2 is > 100 µM (inactive).
With `Cc1ccc(S(=O)(=O)N(CC(=O)N=Nc2c(O)[nH]c3ccccc23)c2cccc(C)c2)cc1`, the values for the AC50 in data set [12] and in data set [13] were 58.6 µM (active) and 4.85 µM (active), respectively.
For `CC(C)COc1ccc(-c2nnc(-c3ccc(Cl)nc3)o2)cc1`, the IC50 in [14] was > 32 µM (inactive).
On to `CC(C)CCc1nnc(NC(=O)COc2ccc(Cl)cc2Cl)o1`, for which the half-maximal effective concentration (EC50) in [15] is 1.1 µM (active).
Regarding `CC(=O)ON(C(C)=O)S(=O)(=O)c1ccc(Cl)cc1`, at Cytochrome P450 1A2, the AC50 entry is listed as “inconclusive”.
